Patent US20260049101A1, “TOPICAL TREATMENT OF SKIN CANCER USING OLIGOPEPTIDES” (BACOBA AG, priority 2022, published 2026)
Numbered stars: 1 amine (or outer) side, 2 acyl side, 3 side chain; on linkers, the order of the positions; unused ones are H or OH. Square brackets hold non-standard residues; d marks the D form. Peptide text beside a SMILES is read from it. * marks the point of attachment. X5 = O=C([C@H](Cc1nc2ccc(F)cc2s1)N[*:1])[*:2]; X7 = O=C([C@H](Cc1nc2ccccc2o1)N[*:1])[*:2]; NH(1-CH2NMe2-cBu) = CN(C)CC1(N*)CCC1; Benzoyl(4-F) = O=C(c1ccc(F)cc1)*; hCha = N[C@@H](CCC1CCCCC1)C(=O)O; β3hL = CC(C)C[C@H](N)CC(=O)O; Aib = CC(C)(N)C(=O)O; βAla = NCCC(=O)O

Test system: cutaneous squamous cell carcinoma cell line SCC12
Experiment: In vitro anti-proliferative assay (resazurin) in SCC12
Format: cell-based
Settings: SCC12, 72 hours
Excerpt: Methodology. The cutaneous squamous cell carcinoma cell culture SCC12 was cultivated in keratinocyte-SFM media (KSFM, Cat #17005042, Gibco) supplemented with human recombinant epidermal growth factor 1-53 (EGF 1-53) and bovine pituitary extract (BFE).
Vehicle treated wells were set to 100% viability.

SMILES	IC50
CC(C)C[C@H](NC(=O)[C@H](Cc1nc2ccccc2o1)NC(=O)[C@@H]1CCCN1C(=O)c1ccc(F)cc1)C(=O)NC(C)(C)C(=O)N[C@@H](CC(C)C)C(=O)N[C@@H](CC(C)C)C(=O)NC(C)(C)C(=O)NC(C)(C)C(=O)NCCC(=O)NC1(CN(C)C)CCC1 [Compound 7850, (2S)-2-[(2S)-3-(1,3-benzoxazol-2-yl)-2-{[(2S)-1-(4-fluorobenzoyl)pyrrolidin-2-yl]formamido}propanamido]-N-(1-{[(1S)-1-{[(1S)-1-({1-[(1-{[2-({1-[(dimethylamino)methyl]cyclobutyl}carbamoyl)ethyl]carbamoyl}-1-methylethyl)carbamoyl]-1-methylethyl}carbamoyl)-3-methylbutyl]carbamoyl}-3-methylbutyl]carbamoyl}-1-methylethyl)-4-methylpentanamide] ({Benzoyl(4-F)}-P[X7]L[Aib]LL[Aib][Aib][βAla]-{NH(1-CH2NMe2-cBu)})	1.04 µM
CC(C)C[C@H](NC(=O)[C@H](Cc1nc2ccc(F)cc2s1)NC(=O)[C@@H]1CCCN1C(=O)c1ccc(F)cc1)C(=O)NC(C)(C)C(=O)N[C@@H](CC(C)C)C(=O)N[C@@H](CC(C)C)C(=O)NC(C)(C)C(=O)NC(C)(C)C(=O)NCCC(=O)NC1(CN(C)C)CCC1 [Compound 7848, (2S)—N-(1-{[(1S)-1-{[(1S)-1-({1-[(1-{[2-({1-[(dimethylamino)methyl]cyclobutyl}carbamoyl)ethyl]carbamoyl}-1-methylethyl)carbamoyl]-1-methylethyl}carbamoyl)-3-methylbutyl]carbamoyl}-3-methylbutyl]carbamoyl}-1-methylethyl)-2-[(2S)-3-(6-fluoro-1,3-benzothiazol-2-yl)-2-{[(2S)-1-(4-fluorobenzoyl)pyrrolidin-2-yl]formamido}propanamido]-4-methylpentanamide] ({Benzoyl(4-F)}-P[X5]L[Aib]LL[Aib][Aib][βAla]-{NH(1-CH2NMe2-cBu)})	0.182 µM
CC(C)C[C@@H](CC(=O)NC(C)(C)C(=O)NC(C)(C)C(=O)NCCC(=O)NC1(CN(C)C)CCC1)NC(=O)C[C@H](CC(C)C)NC(=O)C(C)(C)NC(=O)C[C@H](CC(C)C)NC(=O)[C@H](CCC1CCCCC1)NC(=O)[C@@H]1CCCN1C(=O)c1ccc(F)cc1 [Compound 21315, (3S)-3-[(2S)-4-cyclohexyl-2-{[(2S)-1-(4-fluorobenzoyl)pyrrolidin-2-yl]formamido}butanamido]-N-(1-{[(2S)-1-{[(2S)-1-({1-[(1-{[2-({1-[(dimethylamino)methyl]cyclobutyl}carbamoyl)ethyl]carbamoyl}-1-methylethyl)carbamoyl]-1-methylethyl}carbamoyl)-4-methylpentan-2-yl]carbamoyl}-4-methylpentan-2-yl]carbamoyl}-1-methylethyl)-5-methylhexanamide] ({Benzoyl(4-F)}-P[hCha][β3hL][Aib][β3hL][β3hL][Aib][Aib][βAla]-{NH(1-CH2NMe2-cBu)})	3.1 µM
CC(C)C[C@H](NC(=O)[C@H](CCC1CCCCC1)NC(=O)[C@@H]1CCCN1C(=O)c1ccc(F)cc1)C(=O)NCC(C)(C)C(=O)N[C@@H](CC(C)C)C(=O)N[C@@H](CC(C)C)C(=O)NCC(C)(C)C(=O)NCC(C)(C)C(=O)NCCC(=O)NC1(CN(C)C)CCC1 [Compound 21189, (2S)-2-[(2S)-4-cyclohexyl-2-{[(2S)-1-(4-fluorobenzoyl)pyrrolidin-2-yl]formamido}butan-amido]-N-(2-{[(1S)-1-{[(1S)-1-({2-[(2-{[2-({1-[(dimethylamino)methyl]cyclobutyl}carbamoyl)ethyl]carbamoyl}-2,2-dimethylethyl)carbamoyl]-2,2-dimethylethyl}carbamoyl)-3-methylbutyl]carbamoyl}-3-methylbutyl]carbamoyl}-2,2-dimethylethyl)-4-methylpentanamide]	> 10 µM
